Measured values reported in ChEMBL document CHEMBL4316596, “Antimicrobial Peptides with High Proteolytic Resistance for Combating Gram-Negative Bacteria” (J Med Chem, 2019).

Legend:
Pseudomonas aeruginosa [1] = test: Bactericidal activity against Pseudomonas aeruginosa 25349 clinical isolates incubated for 4 hrs followed by culture spread on agar plates and cultured overnight; format: functional
Escherichia coli [2] = test: Bactericidal activity against Escherichia coli ATCC 25922 incubated for 4 hrs followed by culture spread on agar plates and cultured overnight in presence of FeCl3; format: functional; conditions: ATCC 25922, 4 h, read-out: MBC>99.9
Escherichia coli [3] = test: Bactericidal activity against Escherichia coli ATCC 25922 incubated for 4 hrs followed by culture spread on agar plates and cultured overnight in presence of 50% serum albumin; format: functional; conditions: ATCC 25922, 4 h, read-out: MBC>99.9
Pseudomonas aeruginosa [4] = test: Antimicrobial activity against Pseudomonas aeruginosa ATCC 27853 after 24 hrs by NCCLS-protocol based assay; format: functional
[5] = (§1) Antimicrobial activity against Salmonella pullorum C7913 after 24 hrs by NCCLS-protocol based assay; format: functional, Salmonella enterica subsp. enterica serovar Pullorum; conditions: Salmonella enterica, C7913, 24 h
Escherichia coli [6] = test: Bactericidal activity against Escherichia coli UB1005 incubated for 4 hrs followed by culture spread on agar plates and cultured overnight; format: functional
Pseudomonas aeruginosa [7] = test: Antimicrobial activity against Pseudomonas aeruginosa 26305 clinical isolates after 24 hrs by NCCLS-protocol based assay; format: functional
Salmonella typhimurium [8] = test: Bactericidal activity against Salmonella typhimurium ATCC 14028 incubated for 4 hrs followed by culture spread on agar plates and cultured overnight; format: functional, Salmonella enterica subsp. enterica serovar Typhimurium
Escherichia coli [9] = test: Bactericidal activity against Escherichia coli K88 incubated for 4 hrs followed by culture spread on agar plates and cultured overnight; format: functional
Escherichia coli [10] = test: Bactericidal activity against Escherichia coli 078 incubated for 4 hrs followed by culture spread on agar plates and cultured overnight; format: functional
Escherichia coli [11] = test: Antimicrobial activity against Escherichia coli K88 after 24 hrs by NCCLS-protocol based assay; format: functional
Pseudomonas aeruginosa [12] = test: Antimicrobial activity against Pseudomonas aeruginosa PAO1 after 24 hrs by NCCLS-protocol based assay; format: functional
Escherichia coli [13] = test: Bactericidal activity against Escherichia coli ATCC 25922 incubated for 4 hrs followed by culture spread on agar plates and cultured overnight; format: functional
Pseudomonas aeruginosa [14] = test: Antimicrobial activity against Pseudomonas aeruginosa 25349 clinical isolates after 24 hrs by NCCLS-protocol based assay; format: functional
Escherichia coli [15] = test: Antimicrobial activity against Escherichia coli 078 after 24 hrs by NCCLS-protocol based assay; format: functional
Pseudomonas aeruginosa [16] = test: Bactericidal activity against Pseudomonas aeruginosa PAO1 incubated for 4 hrs followed by culture spread on agar plates and cultured overnight; format: functional
Escherichia coli [17] = test: Bactericidal activity against Escherichia coli ATCC 25922 incubated for 4 hrs followed by culture spread on agar plates and cultured overnight in presence of KCl; format: functional; conditions: ATCC 25922, 4 h, read-out: MBC>99.9
Escherichia coli [18] = test: Bactericidal activity against Escherichia coli ATCC 25922 incubated for 4 hrs followed by culture spread on agar plates and cultured overnight in presence of MgCl2; format: functional; conditions: ATCC 25922, 4 h, read-out: MBC>99.9
Escherichia coli [19] = test: Bactericidal activity against Escherichia coli K99 incubated for 4 hrs followed by culture spread on agar plates and cultured overnight; format: functional
Klebsiella pneumoniae [20] = test: Bactericidal activity against Klebsiella pneumoniae incubated for 4 hrs followed by culture spread on agar plates and cultured overnight; format: functional
Escherichia coli [21] = test: Antimicrobial activity against Escherichia coli UB1005 after 24 hrs by NCCLS-protocol based assay; format: functional
Acinetobacter baumannii [22] = test: Bactericidal activity against Acinetobacter baumannii incubated for 4 hrs followed by culture spread on agar plates and cultured overnight; format: functional
Salmonella typhimurium [23] = test: Bactericidal activity against Salmonella typhimurium C7731 incubated for 4 hrs followed by culture spread on agar plates and cultured overnight; format: functional, Salmonella enterica subsp. enterica serovar Typhimurium
Salmonella typhimurium [24] = test: Antimicrobial activity against Salmonella typhimurium C7731 after 24 hrs by NCCLS-protocol based assay; format: functional, Salmonella enterica subsp. enterica serovar Typhimurium
Klebsiella pneumoniae [25] = test: Antimicrobial activity against Klebsiella pneumoniae after 24 hrs by NCCLS-protocol based assay; format: functional
Escherichia coli [26] = test: Bactericidal activity against Escherichia coli ATCC 25922 incubated for 4 hrs followed by culture spread on agar plates and cultured overnight in presence of NH4Cl; format: functional; conditions: ATCC 25922, 4 h, read-out: MBC>99.9
[27] = (§2) Bactericidal activity against Salmonella pullorum C7913 incubated for 4 hrs followed by culture spread on agar plates and cultured overnight; format: functional, Salmonella enterica subsp. enterica serovar Pullorum; conditions: Salmonella enterica, C7913, 4 h; read-out: MBC>99.9
Salmonella typhimurium [28] = test: Antimicrobial activity against Salmonella typhimurium ATCC 14028 after 24 hrs by NCCLS-protocol based assay; format: functional, Salmonella enterica subsp. enterica serovar Typhimurium
Escherichia coli [29] = test: Bactericidal activity against Escherichia coli ATCC 25922 incubated for 4 hrs followed by culture spread on agar plates and cultured overnight in presence of 25% serum albumin; format: functional; conditions: ATCC 25922, 4 h, read-out: MBC>99.9
Escherichia coli [30] = test: Antimicrobial activity against Escherichia coli ATCC 25922 after 24 hrs by NCCLS-protocol based assay; format: functional
Escherichia coli [31] = test: Bactericidal activity against Escherichia coli ATCC 25922 incubated for 4 hrs followed by culture spread on agar plates and cultured overnight in presence of ZnCl2; format: functional; conditions: ATCC 25922, 4 h, read-out: MBC>99.9
Pseudomonas aeruginosa [32] = test: Bactericidal activity against Pseudomonas aeruginosa ATCC 27853 incubated for 4 hrs followed by culture spread on agar plates and cultured overnight; format: functional
Escherichia coli [33] = test: Antimicrobial activity against Escherichia coli K99 after 24 hrs by NCCLS-protocol based assay; format: functional
Acinetobacter baumannii [34] = test: Antimicrobial activity against Acinetobacter baumannii after 24 hrs by NCCLS-protocol based assay; format: functional
Pseudomonas aeruginosa [35] = test: Bactericidal activity against Pseudomonas aeruginosa CICC 21625 clinical isolates incubated for 4 hrs followed by culture spread on agar plates and cultured overnight; format: functional
Pseudomonas aeruginosa [36] = test: Antimicrobial activity against Pseudomonas aeruginosa CICC 21625 clinical isolates after 24 hrs by NCCLS-protocol based assay; format: functional
Pseudomonas aeruginosa [37] = test: Bactericidal activity against Pseudomonas aeruginosa CICC 21630 clinical isolates incubated for 4 hrs followed by culture spread on agar plates and cultured overnight; format: functional
Escherichia coli [38] = test: Bactericidal activity against Escherichia coli ATCC 25922 incubated for 4 hrs followed by culture spread on agar plates and cultured overnight in presence of 12.5% serum albumin; format: functional; conditions: ATCC 25922, 4 h, read-out: MBC>99.9
Pseudomonas aeruginosa [39] = test: Antimicrobial activity against Pseudomonas aeruginosa CICC 21630 clinical isolates after 24 hrs by NCCLS-protocol based assay; format: functional
Pseudomonas aeruginosa [40] = test: Bactericidal activity against Pseudomonas aeruginosa 26305 clinical isolates incubated for 4 hrs followed by culture spread on agar plates and cultured overnight; format: functional
Escherichia coli [41] = test: Bactericidal activity against Escherichia coli ATCC 25922 incubated for 4 hrs followed by culture spread on agar plates and cultured overnight in presence of NaCl; format: functional; conditions: ATCC 25922, 4 h, read-out: MBC>99.9
Escherichia coli [42] = test: Bactericidal activity against Escherichia coli ATCC 25922 incubated for 4 hrs followed by culture spread on agar plates and cultured overnight in presence of CaCl2; format: functional; conditions: ATCC 25922, 4 h, read-out: MBC>99.9
[43] = test system: Salmonella enterica subsp. enterica serovar Pullorum; test: as §1; format: functional
Pseudomonas aeruginosa [44] = test: Ratio of MBC against Pseudomonas aeruginosa ATCC 27853 after 26 to 60 passages to MBC against Pseudomonas aeruginosa ATCC 27853; format: functional, organism-based
[45] = test system: Salmonella enterica subsp. enterica serovar Pullorum; test: as §2; format: functional
[46] = Salmonella enterica subsp. enterica serovar Typhimurium

H-LKPLLKPLLKPLLKPLLKPLLKPL-NH2 showed an MBC (Pseudomonas aeruginosa [1]; Pseudomonas aeruginosa, 25349, 4 h, read-out: MBC>99.9) of 32 µM, an MBC (Escherichia coli [2]) of 4 µM and an MBC (Escherichia coli [3]) greater than 128 µM. The MIC95 (Pseudomonas aeruginosa [4]; ATCC 27853, 24 h) was 4 µM, the MIC95 [5] was 4 µM and the MBC (Escherichia coli [6]; UB1005, 4 h, read-out: MBC>99.9) was 4 µM. The MIC95 (Pseudomonas aeruginosa [7]; Pseudomonas aeruginosa, 26305, 24 h) was 64 µM, the MBC (Salmonella typhimurium [8]; Salmonella enterica, ATCC 14028, 4 h, read-out: MBC>99.9) was 8 µM and the MBC (Escherichia coli [9]; K88, 4 h, read-out: MBC>99.9) was 2 µM. It also gave an MBC (Escherichia coli [10]; Escherichia coli, 078, 4 h, read-out: MBC>99.9) of 2 µM, an MIC95 (Escherichia coli [11]; K88, 24 h) of 1 µM and an MIC95 (Pseudomonas aeruginosa [12]; PAO1, 24 h) of 4 µM. The MBC (Escherichia coli [13]; ATCC 25922, 4 h, read-out: MBC>99.9) was 2 µM, the MIC95 (Pseudomonas aeruginosa [14]; Pseudomonas aeruginosa, 25349, 24 h) was 32 µM and the MIC95 (Escherichia coli [15]; Escherichia coli, 078, 24 h) was 2 µM. For the same substance, the MBC (Pseudomonas aeruginosa [16]; PAO1, 4 h, read-out: MBC>99.9) was 8 µM, the MBC (Escherichia coli [17]) was 1 µM and the MBC (Escherichia coli [18]) was 16 µM. The MBC (Escherichia coli [19]; K99, 4 h, read-out: MBC>99.9) was 2 µM, the MBC (Klebsiella pneumoniae [20]; read-out: MBC>99.9) was 8 µM and the MIC95 (Escherichia coli [21]; UB1005, 24 h) was 2 µM. It also gave an MBC (Acinetobacter baumannii [22]; read-out: MBC>99.9) of 4 µM, an MBC (Salmonella typhimurium [23]; Salmonella enterica, C7731, 4 h, read-out: MBC>99.9) of 8 µM and an MIC95 (Salmonella typhimurium [24]; Salmonella enterica, C7731, 24 h) of 8 µM. The MIC95 (Klebsiella pneumoniae [25]) was 8 µM, the MBC (Escherichia coli [26]) was 4 µM and the MBC [27] was 8 µM. It also gave an MIC95 (Salmonella typhimurium [28]; Salmonella enterica, ATCC 14028, 24 h) of 4 µM, an MBC (Escherichia coli [29]) greater than 128 µM and an MIC95 (Escherichia coli [30]; ATCC 25922, 24 h) of 1 µM. The MBC (Escherichia coli [31]) was 2 µM, the MBC (Pseudomonas aeruginosa [32]; ATCC 27853, 4 h, read-out: MBC>99.9) was 4 µM and the MIC95 (Escherichia coli [33]; K99, 24 h) was 2 µM. For the same substance, the MIC95 (Acinetobacter baumannii [34]) was 4 µM, the MBC (Pseudomonas aeruginosa [35]; CICC 21625, 4 h, read-out: MBC>99.9) was 64 µM and the MIC95 (Pseudomonas aeruginosa [36]; CICC 21625, 24 h) was 64 µM. It also gave an MBC (Pseudomonas aeruginosa [37]; CICC 21630, 4 h, read-out: MBC>99.9) of 64 µM, an MBC (Escherichia coli [38]) of 8 µM and an MIC95 (Pseudomonas aeruginosa [39]; CICC 21630, 24 h) of 32 µM. It also gave an MBC (Pseudomonas aeruginosa [40]; Pseudomonas aeruginosa, 26305, 4 h, read-out: MBC>99.9) greater than 64 µM, an MBC (Escherichia coli [41]) of 16 µM and an MBC (Escherichia coli [42]) greater than 128 µM.
In the case of GENTAMICIN, the MBC>99.9 (Pseudomonas aeruginosa [1]) is reported as 2 µM, the MIC>95 (Pseudomonas aeruginosa [4]) is reported as 1 µM and the MIC>95 [43] is reported as 1 µM. It also gave an MBC>99.9 (Escherichia coli [6]) of 0.25 µM, an MIC>95 (Pseudomonas aeruginosa [7]) greater than 64 µM and an MBC>99.9 (Salmonella typhimurium [8]; [46]) of 2 µM. The MBC>99.9 (Escherichia coli [9]) was 0.25 µM, the MBC>99.9 (Escherichia coli [10]) was 0.5 µM and the MIC>95 (Escherichia coli [11]) was 0.125 µM. It also gave an MIC>95 (Pseudomonas aeruginosa [12]) of 2 µM, an MBC>99.9 (Escherichia coli [13]) of 2 µM and an MIC>95 (Pseudomonas aeruginosa [14]) of 2 µM. For the same substance, the MIC>95 (Escherichia coli [15]) was 0.25 µM, the Ratio (Pseudomonas aeruginosa [44]) was 32 and the MBC>99.9 (Pseudomonas aeruginosa [16]) was 2 µM. For the same substance, the MBC>99.9 (Escherichia coli [19]) was 0.25 µM, the MBC>99.9 (Klebsiella pneumoniae [20]) was 0.5 µM and the MIC>95 (Escherichia coli [21]) was 0.25 µM. The MBC>99.9 (Acinetobacter baumannii [22]) was 0.5 µM, the MBC>99.9 (Salmonella typhimurium [23]; [46]) was 2 µM and the MIC>95 (Salmonella typhimurium [24]; [46]) was 1 µM. It also gave an MIC>95 (Klebsiella pneumoniae [25]) of 0.5 µM, an MBC>99.9 [45] of 1 µM and an MIC>95 (Salmonella typhimurium [28]; [46]) of 1 µM. The MIC>95 (Escherichia coli [30]) was 1 µM, the MBC>99.9 (Pseudomonas aeruginosa [32]) was 1 µM and the MIC>95 (Escherichia coli [33]) was 0.25 µM. The MIC>95 (Acinetobacter baumannii [34]) was 0.25 µM, the MBC>99.9 (Pseudomonas aeruginosa [35]) was 1 µM and the MIC>95 (Pseudomonas aeruginosa [36]) was 1 µM. It also gave an MBC>99.9 (Pseudomonas aeruginosa [37]) of 2 µM, an MIC>95 (Pseudomonas aeruginosa [39]) of 1 µM and an MBC>99.9 (Pseudomonas aeruginosa [40]) greater than 64 µM.
